Tested on: human dermal fibroblasts (HDFs)
Experiment: qRT-PCR of HDFs treated with ATRA for four days
Format: cell-based
Experimental: Cell culture and maintenance. Human dermal fibroblasts (HDFs) were isolated from the dermis of human juvenile foreskin and expanded in Dulbecco's Modified Eagle's medium (DMEM) (Lonza, Basel, SWI) supplemented with 10% fetal bovine serum (FBS) (Sigma-Aldrich, St. Louis, MO), 1× Antibiotic-Antimycotic (Anti-Anti) (Gibco, Waltham, MA), 1× MEM Non-Essential Amino Acids (MEM NEAA) (Gibco, Waltham, MA), and 1× GlutaMAX Supplement (GlutaMAX) (Gibco, Waltham, MA) at 37° C. with 5% CO2. The Platinum-A (Plat-A) retroviral packaging cell line (Cell Biolabs, San Diego, CA) was maintained in the same medium without Anti-Anti and used for transfection at passages four to seven. HDFs and directly reprogrammed smooth muscle cells (rSMCs) were maintained in DMEM with low glucose (HyClone, Logan, UT) supplemented with 5% FBS, Anti-Anti, MEM NEAA, and GlutaMAX.
Generation of directly reprogrammed SMCs. For direct reprogramming of HDFs into contractile SMCs, HDFs were seeded at a density of 1.5×10^5 cells per ml in DMEM (Lonza) supplemented with 10% FBS (Sigma-Aldrich), Anti-Anti (Gibco), MEM NEAA (Gibco), and GlutaMAX (Gibco) at 37° C. with 5% CO2. The cells were infected overnight with filtered retroviral medium containing four μg per ml of polybrene (Sigma-Aldrich) with or without 0.4, 2, or 10 μM per liter of all-trans retinoic acid (ATRA) (Sigma-Aldrich), and the viral medium was replaced with DMEM/low glucose (HyClone) supplemented with 5% FBS, Anti-Anti, MEM NEAA, and GlutaMAX with or without ATRA for 24 hrs. The viral infection was repeated twice, and the cells were maintained in DMEM/low glucose containing 5% FBS with or without ATRA for the duration of culture.
[…] reverse transcriptase polymerase chain reaction (qRT-PCR). Total ribonucleic acid (RNA) was isolated from cells using the RNeasy Mini Kit (QIAGEN, Hilden, GE) or TRIsure (Bioline, Memphis, TN), according to the manufacturer's instructions. The extracted RNA was reverse transcribed with TaqMan Reverse Transcription Reagents (Applied Biosystems, Foster City, CA), according to the manufacturer's instructions. The synthesized cDNA was amplified with PowerUP SYBR Green Master Mix (Thermo Fisher Scientific, Waltham, MA), according to the manufacturer's instructions, and was subject to qRT-PCR with human or mouse specific primers, as shown in Table 1. Quantitative assessment of RNA levels was performed using a QuantStudio 3 96-well 0.2-ml real-time PCR system (Applied Biosystems). The relative messenger RNA (mRNA) expression was normalized to GAPDH.

[1] = ATRA-treated vs untreated HDFs, four days

SMILES: CC1=C(/C=C/C(C)=C/C=C/C(C)=C/C(=O)O)C(C)(C)CCC1 [ATRA, (2E,4E,6E,8E)-3,7-dimethyl-9-(2,6,6-trimethylcyclohexen-1-yl) nona-2,4,6,8-tetraenoic acid]
- expression of S100A4 [1]: substantially reduced
- fold increase of SMC gene expression, CALD1 [1]: 1.1 fold
- fold increase of SMC gene expression, MYH11 [1]: 6.1 fold
- mRNA expression of STRA6 and the SMC genes [1]: increased
- most effective concentration for induction of SMC gene expression (among the tested ATRA concentrations, HDFs): 2 µM

Source: patent US20260201336A1, “REPROGRAMMED SMOOTH MUSCLE CELLS AND METHODS RELATED THERETO” (EMORY UNIVERSITY, priority 2022, published 2026)
